Source: publication PMC2139785 (The Journal of Cell Biology, 1997)

Biological target: p62^cplx-associated PI3-kinase (100-kD catalytic subunit)
Test: PI3-kinase lipid kinase assay
Assay type: biochemical, Rattus norvegicus

Q: Which IC50 does the source give for `COC[C@H]1OC(=O)c2coc3c2[C@@]1(C)C1=C(C3=O)[C@@H]2CCC(=O)[C@@]2(C)C[C@H]1OC(C)=O` [wortmannin] here?
A: ~3.5 µM
